In assay [1] the test system is male C57BL mice. Kind of assay: Screening for intestinal growth effects (small intestine and colon mass relative to body weight, small intestine-colon sensitivity index). The following applies: for Small intestine mass relative to [Gly2]GLP-2 / Preferential growth of small intestine versus colon (small intestine-colon sensitivity): 30 nmol/kg s.c. twice daily, ten days; for Small intestine mass relative to [Gly2]GLP-2: equimolar [Gly2]GLP-2; for Preferential growth of small intestine versus colon (small intestine-colon sensitivity): relative to [Gly2]GLP-2; for colon mass relative to body weight, % [Gly2]GLP-2 / small intestine-colon sensitivity index, (SI/Colon)X/(SI/Colon)[Gly2]GLP-2 %: male C57BL mice, 30 nmol/kg s.c. twice daily for ten days; for small intestine-colon sensitivity index, (SI/Colon)X/(SI/Colon)[Gly2]GLP-2 %: third value column. The class given is in vivo. In a few lines: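 Groups of six mice were dosed s.c. at 30 nmol/kg twice daily for ten days, with vehicle (PBS, pH 7.4) or equimolar [Gly2]GLP-2 as comparators. The sensitivity index was (SI/Colon) of the compound over that of [Gly2]GLP-2, with ≥1.05 counted as small-intestine-selective and ≤0.95 as colon-selective.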

In assay [2] the test system is C57BL mice treated with 5-Fluorouracil (5-FU). Description: 5-FU-induced small intestinal atrophy (SI-BW, SI length) in mice. The class given is in vivo. The settings on record: for 5-FU-induced small intestine atrophy (SI-BW, SI length): 5-405 (810) nmol/kg s.c. b.i.d., 3 days prior to and 4 days with 5-FU 50 mg/kg i.p. daily; for Efficacy on SI-length compared with 405 nmol/kg [Gly2]GLP-2 / Efficacy on SI-BW compared with 405 nmol/kg [Gly2]GLP-2: 5-FU treated mice; for Efficacy on SI-BW compared with 405 nmol/kg [Gly2]GLP-2: equimolar dose; for Efficacy on 5-FU-induced atrophy compared with [Gly2]GLP-2 (figure legends): high/highest doses vs [Gly2]GLP-2 405 nmol/kg. As for the experimental part: (§1) FIG. 6 is a set of graphs showing the effect of compound 1846 (SEQ ID NO:34) (5, 15, 45, 135, 405 and 810 nmol/kg, s.c., b.i.d.; n=6/dose group) on A) small intestine-to-body weight ratio (SI-BW), and B) small intestinal length (SI length) in mice treated with the cytostatic drug 5-Fluorouracil (5-FU). Compound 1846 (SEQ ID NO:34) was administered for 3 days prior to and for 4 days together with 5-FU, 50 mg/kg, i.p. daily. For reference, [Gly2]GLP-2 (SEQ ID NO:54) (405 nmol/kg) was given to one group of animals. Results from control animals treated with vehicle (PBS) or 5-FU alone are also shown. […] Values are means±SEM. * P<0.05, relative to 5-FU.
as §1, with “FIG. 7” for “FIG. 6”, “compound 1848” for “compound 1846”, “ID NO:36)” for “ID NO:34)”, “Compound 1848” for “Compound 1846”, “5-FU. # P<0.05, relative to [Gly2]GLP-2.” for “5-FU.”
FIG. 8 is a set of graphs showing the effect of compound 1855 (SEQ ID NO:43) (5, 15, 45, 135, and 405 nmol/kg, s.c., b.i.d.; n=6/dose group) on A) small intestine-to-body weight ratio (SI-BW), and B) small intestinal length (SI length) in mice treated with the cytostatic drug 5-Fluorouracil (5-FU). Compound 1855 (SEQ ID NO:43) was administered for 3 days prior to and for 4 days together with 5-FU, 50 mg/kg, i.p. daily. For reference, [Gly2]GLP-2 (405 nmol/kg) was given to one group of animals. Results from control animals treated with vehicle (PBS) or 5-FU alone are also shown. […] Values are means±SEM. * P<0.05, relative to 5-FU. # P<0.05, relative to [Gly2]GLP-2 (SEQ ID NO:54).
FIG. 9 is a set of graphs showing the effect of compound 1857 (SEQ ID NO:45) (5, 15, 45, 135, and 405 nmol/kg, s.c., b.i.d.; n=6/dose group) on A) small intestine-to-body weight ratio (SI-BW), and B) small intestinal length (SI length) in mice treated with the cytostatic drug 5-Fluorouracil (5-FU). Compound 1857 (SEQ ID NO:45) was administered for 3 days prior to and for 4 days together with 5-FU, 50 mg/kg, i.p. daily. For reference, [Gly2]GLP-2 (SEQ ID NO:54) (405 nmol/kg) was given to one group of animals. Results from control animals treated with vehicle (PBS) or 5-FU alone are also shown. […] Values are means±SEM. * P<0.05, relative to 5-FU. # P<0.05, relative to [Gly2]GLP-2 (SEQ ID NO:54).
The rapid rate of proliferation of the small intestinal stem cells, makes them a susceptible target to the cytotoxic effects of the chemotherapeutic agents used in anti-cancer therapies. Consequently, clinical use of the chemotherapeutic agent 5-fluorouracil (5-FU) is frequently associated with small intestinal injury (atrophy and diarrhea in cancer patients. We have previously shown that i.p. administration of 50 mg/kg 5-FU once daily for four days induces significant small intestinal atrophy in C57BL mice. The effect of the lead compounds, 1846 (SEQ ID NO:34), 1848 (SEQ ID NO:36), 1855 (SEQ ID NO:43), and 1857 (SEQ ID NO:45) on 5-FU-induced small intestinal atrophy was investigated in mice. 1846 (SEQ ID NO:34), 1848 (SEQ ID NO:36), 1855 (SEQ ID NO:43), or 1857 (SEQ ID NO:45) were administered twice daily for three days prior to 5-FU and for four days together with 5-FU administration. The lead compounds were each administered at five different doses (5, 15, 45, 135 and 405 nmol/kg) that have been previously shown to effectively stimulate small intestine growth in healthy mice (Example 9). […]

Entries after “also recorded” stand apart in the source; their conditions may differ. No end group written: not given here.

Turning to “[Gly2, Glu3, Leu10, Ser11, Ala16,24,28]hGLP-2(1-33)-NH2 [Compound 1857]”, in assay [1], the “Small intestine mass relative to [Gly2]GLP-2” value was “increased small intestine mass relative to [Gly2]GLP-2”; the “Preferential growth of small intestine versus colon (small intestine-colon sensitivity)” value is “preferentially stimulating epithelial growth in the small intestine”; the “colon mass relative to body weight, % [Gly2]GLP-2” value stood at 90 % [Gly2]GLP-2; the “small intestine-colon sensitivity index, (SI/Colon)X/(SI/Colon)[Gly2]GLP-2 %” value turned out to be 130 % [Gly2]GLP-2. For the same substance, in assay [2], the “5-FU-induced small intestine atrophy (SI-BW, SI length)” value (“5-FU-induced small intestine atrophy” for short) is “prevented 5-FU-induced small intestine atrophy; also recorded: dose-dependently prevented 5-FU-induced SI atrophy and maintained SI-BW at levels similar to PBS controls”; the “Efficacy on SI-length compared with 405 nmol/kg [Gly2]GLP-2” value was “significantly more efficacious than 405 nmol/kg [Gly2]GLP-2”; the “Efficacy on SI-BW compared with 405 nmol/kg [Gly2]GLP-2” value was “significantly more efficacious than 405 nmol/kg [Gly2]GLP-2”.
For “[Gly2, Glu3, Ser8,11, Leu10, Ala16,24,28]hGLP-2(1-33)-(Lys)6-NH2 (HGEGSFSSELSTILDALAARDFIAWLIATKITDKKKKKK-NH2) [Compound 1846]”, in assay [1], the “Small intestine mass relative to [Gly2]GLP-2” value is “increased small intestine mass relative to [Gly2]GLP-2”; the “Preferential growth of small intestine versus colon (small intestine-colon sensitivity)” value was “supplementary increase in the weight of the small intestine without significant effecting the weight of the colon; also recorded: preferentially stimulating epithelial growth in the small intestine”; the “colon mass relative to body weight, % [Gly2]GLP-2” value is 102 % [Gly2]GLP-2; the “small intestine-colon sensitivity index, (SI/Colon)X/(SI/Colon)[Gly2]GLP-2 %” value was found to be 118 % [Gly2]GLP-2. In addition, the “5-FU-induced small intestine atrophy” value in assay [2] is “prevented 5-FU-induced small intestine atrophy; also recorded: dose-dependently prevented 5-FU-induced SI atrophy and maintained SI-BW at levels similar to PBS controls”.
“[Gly2, Glu3, Thr5, Ser8, Leu10, Ala11,16,24,28]hGLP-2(1-33)-(Lys)6-NH2 (HGEGTFSSELATILDALAARDFIAWLIATKITDKKKKKK-NH2) [Compound 1848]”: in assay [1], the “Small intestine mass relative to [Gly2]GLP-2” value was “increased small intestine mass relative to [Gly2]GLP-2”; the “Preferential growth of small intestine versus colon (small intestine-colon sensitivity)” value is “supplementary increase in the weight of the small intestine without significant effecting the weight of the colon; also recorded: preferentially stimulating epithelial growth in the small intestine”; the “colon mass relative to body weight, % [Gly2]GLP-2” value came to 93 % [Gly2]GLP-2; the “small intestine-colon sensitivity index, (SI/Colon)X/(SI/Colon)[Gly2]GLP-2 %” value amounted to 117 % [Gly2]GLP-2. For the same substance, in assay [2], the “5-FU-induced small intestine atrophy” value was “prevented 5-FU-induced small intestine atrophy; also recorded: dose-dependently prevented 5-FU-induced SI atrophy and maintained SI-BW at levels similar to PBS controls”; the “Efficacy on SI-length compared with 405 nmol/kg [Gly2]GLP-2” value was “significantly more efficacious than 405 nmol/kg [Gly2]GLP-2”; the “Efficacy on SI-BW compared with 405 nmol/kg [Gly2]GLP-2” value was “significantly more efficacious than 405 nmol/kg [Gly2]GLP-2”; the “Efficacy on 5-FU-induced atrophy compared with [Gly2]GLP-2 (figure legends)” value is “more efficacious than [Gly2]GLP-2”.
“[Gly2, Glu3, Thr5, Ser8, Leu10, Ala11,16,24,28]hGLP-2(1-33)-NH2 [Compound 1855]”: in assay [1], the “Small intestine mass relative to [Gly2]GLP-2” value was “increased small intestine mass relative to [Gly2]GLP-2”; the “Preferential growth of small intestine versus colon (small intestine-colon sensitivity)” value is listed as “supplementary increase in the weight of the small intestine without significant effecting the weight of the colon; also recorded: preferentially stimulating epithelial growth in the small intestine”; the “colon mass relative to body weight, % [Gly2]GLP-2” value is 88 % [Gly2]GLP-2; the “small intestine-colon sensitivity index, (SI/Colon)X/(SI/Colon)[Gly2]GLP-2 %” value turned out to be 120 % [Gly2]GLP-2. Also, in assay [2], the “5-FU-induced small intestine atrophy” value is “prevented 5-FU-induced small intestine atrophy; also recorded: dose-dependently prevented 5-FU-induced SI atrophy and maintained SI-BW at levels similar to PBS controls”; the “Efficacy on SI-BW compared with 405 nmol/kg [Gly2]GLP-2” value is “significantly more efficacious than 405 nmol/kg [Gly2]GLP-2”; the “Efficacy on 5-FU-induced atrophy compared with [Gly2]GLP-2 (figure legends)” value was “more efficacious than the equimolar dose of [Gly2]GLP-2; also recorded: more efficacious than a high dose of [Gly2]GLP-2”.

The values above are taken from patent publication US9580487B2, “Method of treating stomach or bowel-related disorders by administering glucagon-like-peptide-2 (GLP-2) analogues” (Zealand Pharma A/S, priority 2005, dated 2017).
